Experiment [1] has as its system human cervical cancer cells HeLa. In words: MTT assay on HeLa cells. Format: cell-based. As to conditions: for IC50: MTT, 72 h drug exposure, read-out: IC50 ± SD HeLa cells. Here is the method: (§1) The human tumor cell line HeLa and murine fibroblast NIH-3T3 cells were obtained from the ATCC (Rockville, MD, USA). The cells grown at 37 °C in humidified 5%-CO2 and 95%-air atmosphere were in Dulbecco's modified eagle medium supplemented with 10% (vol/vol) inactivated bovine serum, penicillin G and streptomycin (100 mg/l). Before a uniform monolayer of cells was formed, cells were freed from the surface of the culture flask by a 0.25% solution of trypsin and were subcultivated two to three times a week. The cells were plated on the cultivation flask (surface 25 cm^2) at a density of 4×10^4 HeLa cells and 6×10^4 NIH-3T3 cells per ml medium and incubated for 24 h prior to the experiments.
(§2) The cytotoxic effect of the compounds prepared on cells was detected in vitro using the mitochondrial cytotoxic test according to Jantová et al. ([2010]) with modifications. Cell viability was evaluated using thiazolyl blue tetrazolium bromide (MTT), which indicates the metabolic activity of cells. The experiment was performed in 96-well microplates. The cells were seeded at a density of 3.5×10^3 HeLa or NIH-3T3 cells per well. Samples were dissolved in DMSO (stock solution 10 mM) and subsequently diluted in medium to the final concentration of 5 µM to 100 µM (concentration of DMSO 0.5%) and after 24 h they were added to the cells. Microplates were cultivated for 72 h in thermostat at 37 °C and 5% CO2 atmosphere. After incubation thiazolyl blue tetrazolium bromide (3.33 mg/ml phosphate buffered saline, pH=7.4) was pipetted to each well and left to incubate for further two hours. Then the medium with MTT solution was removed. Formazan crystals in viable cells were dissolved in the lysis solution (4 mM HCl and 0.1% Nonidet P40 in ethanol). Microplates were shaken 15 min at 1500 rpm. Absorbance was measured at 540 nm and reference wavelength at 740 nm (Multiskan FC, Thermo Scientific, DE). Each value is the mean of 6 wells with standard deviation. Inhibition activity was expressed as percentages of control with DMSO. For each compound IC50 values were calculated by SigmaPlot.

A short description of experiment [2]: Scavenging of DPPH radical. The conditions noted are these: 10 min, room temperature, methanol, read-out: IC50 ± SD DPPH. As for the experimental part:
We used the simple spectrophotometric method according to Yen and Chen ([1995]) to determine the ability to scavenge free radicals. Binding of DPPH? radical by compounds causes its decolorization. The compounds tested were diluted in methanol to the final concentration 200 µM to 12.5 µM. Trolox served as standard antioxidant control. Reactions of samples with DPPH? solution were performed in 96-well plates and lasted for 10 min at room temperature in the dark. After that, the absorbance changes were measured spectrophotometrically at 520 nm (Multiskan FC, Thermo Scientific, DE). Each value is the mean of 5 wells with standard deviation. Inhibitory concentrations (IC50) were expressed as the concentration of the derivative tested to react with one half of the DPPH? and were calculated by SigmaPlot.

Experiment [3] can be described thus: Ferric reducing antioxidant power (FRAP). The conditions noted are these: 10 min, 37 °C, read-out: IC50 ± SD FRAP. Here is the method: The antioxidant reducing power of the derivatives tested was performed using the FRAP method according to Benzie and Strain ([1996]). Ferric to ferrous ion reduction at low pH causes the formation of a colored ferrous-tripyridyltriazine complex. Samples diluted in methanol (200 µM to 12.5 µM) and FRAP reagent reacted for 10 min at 37 °C in 96-well microplates. At the end, absorbance changes were measured spectrophotometrically at 593 nm (Multiskan FC, Thermo Scientific, DE). Each value is the mean of 5 wells with standard deviation. Inhibitory concentrations (IC50) were expressed as the concentration of the derivative tested reducing one half of ferric complexes and were calculated by SigmaPlot.

Experiment [4] concerns non-cancer murine fibroblast cells NIH-3T3. Kind of experiment: MTT assay on NIH-3T3 cells. Format: cell-based. As to conditions: for IC50: MTT, 72 h drug exposure, read-out: IC50 ± SD NIH-3T3 cells. Here is the method: as §1, §2
The subject of the next experiment is NIH-3T3 cells. In words: Light microscopy of NIH-3T3 cells. Format: cell-based, murine. As to conditions: NIH-3T3, 25 µM and 50 µM, 72 h. Here is the method: (§3) The cytotoxic action of the effective chloronaphtoquinone quercetin 5 was further observed also by light microscopy after 72 h of HeLa and NIH-3T3 cells cultivation. […] On the other hand, a significant decrease in cell number was found in cells treated with both concentrations studied (25 µM and 50 µM).
(§4) We monitored prepared quercetin derivatives for their cytotoxic action on human cervical cancer cells HeLa in the concentration range from 5 µM to 100 µM. For comparison non-cancer murine fibroblast cells NIH-3T3 were also evaluated. The MTT test and light microscopy were used for cytotoxicity measurements.

Another experiment deals with HeLa cells. In words: Light microscopy of HeLa cells. It is filed as cell-based, human. As to conditions: 25 µM and 50 µM, 72 h. Here is the method:
as §3, §4

Read-outs that look alike come from different tables or passages of the source.

Regarding `COc1ccc(/C=C/C(=O)Oc2ccc(-c3oc4cc(O)cc(O)c4c(=O)c3O)cc2OC(=O)/C=C/c2ccc(OC)c(OCC=C(C)C)c2)cc1OCC=C(C)C` [compound 14], the IC50 was greater than 50 µM in experiment [1]; 82.8 ± 3.3 µM in experiment [2]; 183 ± 13.5 µM in experiment [3]; greater than 50 µM in experiment [4] (Mus musculus, NIH3T3, 72 h).
Turning to `CC(C)(CCl)C(=O)Oc1cc(OC(=O)C(C)(C)CCl)c2c(=O)c(O)c(-c3ccc(O)c(OC(=O)C(C)(C)CCl)c3)oc2c1` [compound 3], the IC50 in experiment [1] was 65 ± 4.5 µM; in experiment [2] it was greater than 200 µM; in experiment [3] it was greater than 200 µM; in experiment [4] (Mus musculus, NIH3T3, 72 h), 20.3 ± 1.9 µM.
With `CC(=O)Oc1cc(OC(C)=O)c2c(=O)c(OC(C)=O)c(-c3ccc(OC(C)=O)c(OC(C)=O)c3)oc2c1` [compound 6, pentaacetyl quercetin], the IC50 in experiment [1] was 29.6 ± 1.9 µM; in experiment [2], greater than 200 µM; in experiment [3], greater than 200 µM; in experiment [4] (Mus musculus, NIH3T3, 72 h) it was 15.5 ± 0.7 µM.
`Cc1c(C)c2c(c(C)c1O)CCC(C)(C(=O)O)O2` (stereo not shown) [T, trolox, reference compound]: the IC50 in experiment [1] was 34.7 ± 1 µM; in experiment [2], 34.7 ± 1 µM; in experiment [3] it was 39.5 ± 2.1 µM; in experiment [4] (Mus musculus, NIH3T3, 72 h) it was 39.5 ± 2.1 µM.
As to `O=C1C(Cl)=C(Oc2cc(-c3oc4cc(O)cc(O)c4c(=O)c3O)ccc2O)C(=O)c2ccccc21` [compound 5, chloronaphtoquinone quercetin], the inhibition at 25 µM came out at 94.5% in experiment [1] (25 µM, 72 h, read-out: Inhibition of cell proliferation) and 71.9% in experiment [4] (Mus musculus, NIH3T3, NIH-3T3, 25 µM, 72 h, read-out: Inhibition of cell proliferation). The inhibition at 50 µM in experiment [1] (50 µM, 72 h, read-out: Inhibition of cell proliferation) is 97.9%; in experiment [4] (Mus musculus, NIH3T3, NIH-3T3, 50 µM, 72 h, read-out: Inhibition of cell proliferation) it was 85.2%. In addition, the inhibition at 100 µM is 97.7% in experiment [1] (100 µM, 72 h, read-out: Inhibition of cell proliferation) and 93.7% in experiment [4] (Mus musculus, NIH3T3, NIH-3T3, 100 µM, 72 h, read-out: Inhibition of cell proliferation). The IC50 in experiment [1] came out at 13.2 ± 1.6 µM; in experiment [2], 28.4 ± 3 µM; in experiment [3], 64.5 ± 0.6 µM; in experiment [4] (Mus musculus, NIH3T3, 72 h), 16.5 ± 0.1 µM. The morphologic changes result was “cell rounding and cell separation from the cultivation surface” in the experiment on NIH-3T3 cells; “cell rounding and cell separation from the cultivation surface” with HeLa cells.
As for `CC(C)=CCOc1ccc(/C=C/C(=O)Oc2cc(O)c3c(=O)c(O)c(-c4ccc(OC(=O)/C=C/c5ccc(OCC=C(C)C)c(OCC=C(C)C)c5)c(OC(=O)/C=C/c5ccc(OCC=C(C)C)c(OCC=C(C)C)c5)c4)oc3c2)cc1OCC=C(C)C` [compound 7], the 50% inhibitory concentration (IC50) in experiment [1] was greater than 50 µM; in experiment [2] it was greater than 200 µM; in experiment [3], greater than 200 µM; in experiment [4] it was greater than 50 µM; in experiment [4] (Mus musculus, NIH3T3, 72 h), greater than 100 µM.
Turning to `CC1CN(CC(O)COc2cc(O)cc3oc(-c4ccc(O)c(O)c4)c(O)c(=O)c23)CC(C)O1` (stereo not shown) [compound 4], the IC50 was greater than 100 µM in experiment [1]; greater than 200 µM in experiment [2]; greater than 200 µM in experiment [3]; greater than 100 µM in experiment [4] (Mus musculus, NIH3T3, 72 h).
`COc1ccc(/C=C/C(=O)Oc2cc(-c3oc4cc(O)cc(O)c4c(=O)c3O)ccc2O)cc1OC(C)=O` [compound 15]: the concentration for half-maximal inhibition (IC50) was greater than 50 µM in experiment [1]; greater than 200 µM in experiment [2]; greater than 200 µM in experiment [3]; greater than 50 µM in experiment [4] (Mus musculus, NIH3T3, 72 h).
As for `CC(=O)Oc1ccc(/C=C/C(=O)Oc2ccc(-c3oc4cc(O)c(O)cc4c(=O)c3OC(=O)/C=C/c3ccc(OC(C)=O)c(OC(C)=O)c3)cc2OC(=O)/C=C/c2ccc(OC(C)=O)c(OC(C)=O)c2)cc1OC(C)=O` [compound 11], the IC50 in experiment [1] is 16.5 ± 1.5 µM; in experiment [2], 35.4 ± 2.7 µM; in experiment [3] it was greater than 200 µM; in experiment [4] (Mus musculus, NIH3T3, 72 h), 10.6 ± 0.1 µM.
Turning to `CC(=O)Oc1ccccc1C(=O)Oc1ccc(-c2oc3cc(O)cc(OC(=O)c4ccccc4OC(C)=O)c3c(=O)c2OC(=O)c2ccccc2OC(C)=O)cc1OC(=O)c1ccccc1OC(C)=O` [compound 12, tetra(acetylsalicyloyl) quercetin], the half-inhibitory concentration (IC50) in experiment [1] was greater than 50 µM; in experiment [2], greater than 200 µM; in experiment [3], greater than 200 µM; in experiment [4] (Mus musculus, NIH3T3, 72 h) it was greater than 50 µM.
Regarding `CC(C)=CCOc1ccc(/C=C/C(=O)Oc2cc(O)c3c(=O)c(O)c(-c4ccc(OC(=O)/C=C/c5ccc(OCC=C(C)C)c(OCC=C(C)C)c5)c(O)c4)oc3c2)cc1OCC=C(C)C` [compound 8], the IC50 in experiment [1] was greater than 50 µM; in experiment [2] it was 161 ± 13.2 µM; in experiment [3], greater than 200 µM; in experiment [4] it was greater than 50 µM; in experiment [4] (Mus musculus, NIH3T3, 72 h), greater than 100 µM.
Turning to `O=c1c(O)c(-c2ccc(O)c(O)c2)oc2cc(O)cc(O)c12` [Q, quercetin], the IC50 amounted to 35.5 ± 1.1 µM in experiment [1]; 16.2 ± 1.1 µM in experiment [2]; 12.5 ± 0.9 µM in experiment [3]; 20.9 ± 0.9 µM in experiment [4] (Mus musculus, NIH3T3, 72 h).
On the same counts, the results for `CC(=O)OC1CC(OC(C)=O)(C(=O)Oc2cc(O)c3c(=O)c(O)c(-c4ccc(OC(=O)C5(OC(C)=O)CC(OC(C)=O)C(OC(C)=O)C(OC(C)=O)C5)c(O)c4)oc3c2)CC(OC(C)=O)C1OC(C)=O` (stereo not shown) [compound 9, di(tetraacetylquinoyl) quercetin] are 19.5 ± 0.8 µM, 63.7 ± 2.6 µM, 112 ± 7.3 µM and 16.1 ± 0.4 µM.
On the same counts, the results for `CC(C)(CCl)C(=O)Oc1cc(-c2oc3cc(O)cc(O)c3c(=O)c2O)ccc1O` [compound 2] are 43.4 ± 2.8 µM, 27 ± 0.2 µM, 12.5 ± 0.3 µM and 26.8 ± 0.5 µM.
On the same counts, the results for `O=C1c2c(O)cc(O)cc2OC2(c3ccc(O)c(O)c3)Oc3ccc(-c4oc5cc(O)cc(O)c5c(=O)c4O)cc3OC12O` (stereo not shown) [compound 1, diquercetin] are 64 ± 7.5 µM, 58.8 ± 6.2 µM, 103 ± 6.2 µM and 32.9 ± 1.1 µM.

Source of the values: publication PMC3945760, “Antioxidant action and cytotoxicity on HeLa and NIH-3T3 cells of new quercetin derivatives” (Interdisciplinary Toxicology, 2013).
